Here are results for 17 compounds from patent US20040171543A1, “Matrix metalloproteinase inhibitors and methods for identification of lead compounds” (priority 2002, published 2004).

In experiment [1] the target is T1, MMP-12 (Homo sapiens, UniProt P39900). Particulars: literature; cited from earlier work.
For experiment [2], the target named is T2, MMP-13 catalytic domain (MMP-13CD) (Homo sapiens, UniProt P45452).
T2 construct: The catalytic domain of the MMP-13 enzyme, namely matrix metalloproteinase-13 catalytic domain (“MMP-13CD”)
In words: Fluorigenic peptide-1 substrate based assay, MMP-13CD, with/without AcNHOH. Format: biochemical. Particulars: for IC50 Ratio (±): IC50 with AcNHOH divided by IC50 without; for IC50: FP1 substrate.
Description: The catalytic domain of the MMP-13 enzyme, namely matrix metalloproteinase-13 catalytic domain (“MMP-13CD”), rather than the corresponding full-length enzyme, MMP-13 was used in such assay.
50 mM HEPES buffer (pH 7.0)
2% DMSO (with or without inhibitor test compound)
1. Dispensed 2 μL inhibitor test sample (in 100% DMSO) into well.
2. Added 88 μL assay mixture and mixed well, avoiding bubbles.
3. Initiated reactions with 10 μL of 5 nM MMP-13CD; mixed well, avoiding bubbles.
4. Immediately measured the kinetics of the reactions at room temperature.
Alternatively, an endpoint read can also be used to determine reaction velocity provided the initial fluorescence of the solution, as recorded before addition of enzyme, is subtracted from the final fluorescence of the reaction mixture.

The next experiment has as its target T3, MMP-1 (Homo sapiens, UniProt P03956).
T3 sequence (P03956 100-469): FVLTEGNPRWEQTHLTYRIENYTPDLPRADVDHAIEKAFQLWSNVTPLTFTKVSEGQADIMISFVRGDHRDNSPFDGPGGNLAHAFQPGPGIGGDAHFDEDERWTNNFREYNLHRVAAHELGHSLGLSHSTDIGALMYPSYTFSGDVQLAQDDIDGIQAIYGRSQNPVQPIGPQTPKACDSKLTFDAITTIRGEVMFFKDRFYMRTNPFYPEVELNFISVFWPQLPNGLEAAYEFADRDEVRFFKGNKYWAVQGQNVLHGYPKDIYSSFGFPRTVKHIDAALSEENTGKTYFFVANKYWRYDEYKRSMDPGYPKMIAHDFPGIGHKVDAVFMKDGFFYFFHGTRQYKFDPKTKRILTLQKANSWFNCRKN
In words: TPL (thiopeptolide) assay, MMP-1. Format: biochemical. From the text: (§1) The assays that can be used to evaluate the biological activity of various compounds for inhibiting MMPs are well-known and routinely used by those skilled in the art. They measure the amount by which a test compound reduces the hydrolysis of a thiopeptolide substrate caused by a matrix metalloproteinase enzyme. Such assays are described in detail by Ye et al., in Biochemistry, 1992;31(45): 11231-11235, which is incorporated herein by reference.
(§2) Thiopeptolide substrates show virtually no decomposition or hydrolysis in the absence of a matrix metalloproteinase enzyme. A typical thiopeptolide substrate commonly utilized for assays is Ac-Pro-Leu-Gly-thioester-Leu-Leu-Gly-OEt. A 100 μL assay mixture will contain 50 mM of 2-morpholinoethane sulfonic acid monohydrate (MES, pH 6.0) 10 mM CaCl2, 100 μM thiopeptolide substrate, and 1 mM 5,5′-dithio-bis-(2-nitro-benzoic acid) (DTNB). The thiopeptolide substrate concentration is varied from 10 to 800 μM to obtain Km and Kcat values. The change in absorbance at […] is monitored on a Thermo Max microplate reader (Molecular Devices, Menlo Park, Calif.) at room temperature (22° C.). The calculation of the amount of hydrolysis of the thiopeptolide substrate is based on E412=13600 m^−1 cm^−1 for the DTNB-derived product 3-carboxy-4-nitrothiophenoxide. Assays are carried out with and without matrix metalloproteinase inhibitor compounds, and the amount of hydrolysis is compared for a determination of inhibitory activity of the test compounds.

A further experiment concerns the target T4, MMP-2 (Homo sapiens, UniProt P08253).
T4 sequence (P08253 110-660): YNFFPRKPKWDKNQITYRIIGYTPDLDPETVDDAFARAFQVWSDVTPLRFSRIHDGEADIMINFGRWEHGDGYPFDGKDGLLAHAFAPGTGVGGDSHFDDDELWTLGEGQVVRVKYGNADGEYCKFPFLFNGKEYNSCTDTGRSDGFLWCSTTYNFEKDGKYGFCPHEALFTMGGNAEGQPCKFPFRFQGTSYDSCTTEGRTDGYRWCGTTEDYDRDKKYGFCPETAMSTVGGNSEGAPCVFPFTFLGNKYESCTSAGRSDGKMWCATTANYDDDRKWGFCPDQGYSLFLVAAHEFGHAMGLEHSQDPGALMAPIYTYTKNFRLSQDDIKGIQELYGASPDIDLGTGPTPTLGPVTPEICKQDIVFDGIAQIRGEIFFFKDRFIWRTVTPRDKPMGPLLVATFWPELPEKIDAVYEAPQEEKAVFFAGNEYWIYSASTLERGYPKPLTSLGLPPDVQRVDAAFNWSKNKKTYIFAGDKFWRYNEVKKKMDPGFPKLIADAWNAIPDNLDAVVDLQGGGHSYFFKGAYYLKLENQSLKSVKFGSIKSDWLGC
In words: TPL (thiopeptolide) assay, MMP-2. Format: biochemical.
Description: as §1, §2

The target of another experiment is MMP-3 (Homo sapiens, UniProt P08254). Put plainly: TPL (thiopeptolide) assay, MMP-3. In kind it is biochemical.
MMP-3, sequence (P08254 100-477): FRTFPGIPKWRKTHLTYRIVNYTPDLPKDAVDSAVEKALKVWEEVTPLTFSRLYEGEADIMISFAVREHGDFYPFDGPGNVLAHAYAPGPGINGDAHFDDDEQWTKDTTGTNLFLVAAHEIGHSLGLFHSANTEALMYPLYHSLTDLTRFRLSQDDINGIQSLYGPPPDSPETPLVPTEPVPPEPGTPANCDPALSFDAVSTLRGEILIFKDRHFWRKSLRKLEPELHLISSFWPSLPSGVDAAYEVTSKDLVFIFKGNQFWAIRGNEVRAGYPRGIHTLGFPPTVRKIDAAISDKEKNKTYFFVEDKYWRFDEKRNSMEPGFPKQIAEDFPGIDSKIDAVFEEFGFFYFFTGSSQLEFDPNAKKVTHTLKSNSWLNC
Description: as §1, §2

The target of a further experiment is MMP-9 (Homo sapiens, UniProt P14780). In words: TPL (thiopeptolide) assay, MMP-9. In kind it is biochemical.
MMP-9, sequence (P14780 94-707): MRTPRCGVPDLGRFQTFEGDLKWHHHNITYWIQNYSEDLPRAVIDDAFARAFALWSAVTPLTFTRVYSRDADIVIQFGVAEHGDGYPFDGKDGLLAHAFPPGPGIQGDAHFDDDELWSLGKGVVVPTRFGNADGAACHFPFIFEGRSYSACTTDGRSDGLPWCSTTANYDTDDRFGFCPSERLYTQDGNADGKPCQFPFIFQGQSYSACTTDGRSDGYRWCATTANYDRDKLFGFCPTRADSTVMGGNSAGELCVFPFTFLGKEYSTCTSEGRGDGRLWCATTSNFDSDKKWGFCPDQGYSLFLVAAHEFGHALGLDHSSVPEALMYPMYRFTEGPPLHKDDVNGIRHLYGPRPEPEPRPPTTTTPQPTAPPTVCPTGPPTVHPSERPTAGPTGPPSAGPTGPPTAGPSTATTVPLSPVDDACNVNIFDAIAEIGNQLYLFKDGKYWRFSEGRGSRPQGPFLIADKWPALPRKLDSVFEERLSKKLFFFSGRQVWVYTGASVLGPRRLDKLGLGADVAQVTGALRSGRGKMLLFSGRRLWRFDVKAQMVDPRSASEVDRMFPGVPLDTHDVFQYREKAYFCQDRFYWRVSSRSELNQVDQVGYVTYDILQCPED
Description: as §1, §2

Experiment [3] addresses T1, MMP-12. In words: TPL (thiopeptolide) assay, MMP-12 (without and with AH). In kind it is biochemical.
Description: as §1, §2
Although ligand size is not critical, a bulky ligand will block more binding sites of the MMP than a smaller ligand, and may thus prevent potential inhibitors that bind close to, but not at, the functional metal cation from being identified. Suitable ligands are therefore low molecular weight molecules, e.g. acetohydroxamic acid (CH3CONHOH) whose use is preferred.

For another experiment, the target named is MMP-14 (Homo sapiens, UniProt P50281). In words: TPL (thiopeptolide) assay, MMP-14. Format: biochemical.
Description: as §1, §2

A further experiment deals with MMP-13 (Homo sapiens, UniProt P45452). Put plainly: TPL (thiopeptolide) assay, MMP-13 (without and with AH). Format: biochemical.
The target of another experiment is T5, MMP-7 (Homo sapiens, UniProt P09237).
T5 sequence (P09237 95-267): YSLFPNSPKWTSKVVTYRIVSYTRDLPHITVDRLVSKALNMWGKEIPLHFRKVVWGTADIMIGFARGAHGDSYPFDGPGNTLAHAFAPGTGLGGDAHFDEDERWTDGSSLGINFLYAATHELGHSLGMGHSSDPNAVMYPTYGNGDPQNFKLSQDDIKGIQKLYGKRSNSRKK
Put plainly: TPL (thiopeptolide) assay, MMP-7. In kind it is biochemical.
Description: as §1
as §2, with “Assays are carried out with and without matrix metalloproteinase inhibitor compounds, and the amount of hydrolysis is compared for a determination of inhibitory activity of the test compounds.” left out

The target of a further experiment is MMP-8 (Homo sapiens, UniProt P22894). Put plainly: TPL (thiopeptolide) assay, MMP-8. In kind it is biochemical.
MMP-8, sequence (P22894 101-467): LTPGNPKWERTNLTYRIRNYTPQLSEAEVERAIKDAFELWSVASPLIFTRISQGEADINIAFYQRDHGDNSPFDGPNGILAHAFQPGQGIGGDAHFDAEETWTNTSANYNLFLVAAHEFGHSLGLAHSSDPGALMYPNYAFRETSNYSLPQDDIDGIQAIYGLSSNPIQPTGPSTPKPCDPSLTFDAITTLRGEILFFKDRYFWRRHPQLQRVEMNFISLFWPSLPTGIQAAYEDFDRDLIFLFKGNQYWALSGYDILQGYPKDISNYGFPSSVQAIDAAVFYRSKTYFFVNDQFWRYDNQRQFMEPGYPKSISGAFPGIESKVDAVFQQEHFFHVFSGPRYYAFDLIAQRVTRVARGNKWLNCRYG
Description: as §1
as §2, with “Assays are carried out with and without matrix metalloproteinase inhibitor compounds, and the amount of hydrolysis is compared for a determination of inhibitory activity of the test compounds.” left out

[4] abbreviates: TPL assay, without AH, read-out: IC50 MMP-12.
[5] abbreviates: TPL assay, without AH, read-out: IC50 MMP-13.
The mark [6] stands for this setting: in presence of acetohydroxamic acid (+AH), read-out: IC50 MMP12 (+AH).

Structures can show the parent of a compound that is named as a salt. Where two headings read alike, the source gives them in different places. Marks after values point to notes of the source that are not given here.

T1 sequence (P39900 106-470): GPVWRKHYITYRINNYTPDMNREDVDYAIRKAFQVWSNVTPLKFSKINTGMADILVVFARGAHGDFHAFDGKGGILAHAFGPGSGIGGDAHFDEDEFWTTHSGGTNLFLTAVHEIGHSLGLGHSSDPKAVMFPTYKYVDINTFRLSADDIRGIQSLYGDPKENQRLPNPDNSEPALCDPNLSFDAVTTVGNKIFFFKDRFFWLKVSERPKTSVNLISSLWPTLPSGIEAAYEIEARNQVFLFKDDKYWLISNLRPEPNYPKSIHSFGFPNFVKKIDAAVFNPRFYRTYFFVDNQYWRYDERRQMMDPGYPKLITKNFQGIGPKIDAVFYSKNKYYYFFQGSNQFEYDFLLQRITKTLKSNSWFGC

On to `COc1ccc(S(=O)(=O)N(Cc2cccnc2)[C@@H](C(=O)NO)C(C)C)cc1` [CGS27023A], for which the IC50 at MMP-12 [1] is 2 nM.

For `Nc1ccc(-c2ccc(S(N)(=O)=O)cc2)cc1` [Entry 1], the “IC50 Ratio (±)” value in experiment [2] is 0.47^a.

`NS(=O)(=O)c1ccc(-c2ccc([N+](=O)O)cc2)cc1` [Entry 2]: in experiment [2], the “IC50 Ratio (±)” value turned out to be 0.04.

For the compound `COc1ccc(NC(=O)Nc2ccc3nc(C)cc(N)c3c2)cc1` [Entry 3], the “IC50 Ratio (±)” value in experiment [2] is on record as 0.56.

Turning to `Cc1cc(O)nc(SCc2ccc(Cl)cc2)n1` [Entry 4], the “IC50 Ratio (±)” value in experiment [2] is 0.07^a.

Consider `Cc1c(-c2ccc(-n3ccnc3)cc2)[nH][nH]c1=O` [Entry 5], for which the “IC50 Ratio (±)” value in experiment [2] is listed as 1.16.

For the compound `CCOC(=O)/C=C/c1ccc(-n2ccnc2)cc1` [Entry 6], the “IC50 Ratio (±)” value in experiment [2] is reported as 0.82.

As for `COc1ccc(C(=O)NCc2cccnc2)cc1C(=O)NCc1cccnc1` [Entry 7], the “IC50 Ratio (±)” value in experiment [2] turned out to be 0.41.

As for `O=C(NC(=S)NCc1cc(-c2ccccc2)no1)c1ccccc1` [Entry 10], the IC50 in [2] (0 mM AcNHOH, read-out: Without AcNHOH IC50) was 2300 nM; in [2] (15 mM AcNHOH (1 Kd), read-out: With AcNHOH IC50) it was 200 nM. In addition, the “IC50 Ratio (±)” value in [2] is 0.08.

As to `COc1ccc(CC#Cc2ccc3ncn(Cc4ccc(C(=O)O)cc4)c(=O)c3c2)cc1` [Example 1, 4-{6-[3-(4-Methoxy-phenyl)-prop-1-ynyl]-4-oxo-4H-quinazolin-3-ylmethyl}-benzoic acid], the IC50 at MMP-1 (read-out: IC50 MMP-1) was greater than 100000 nM; on MMP-2 (read-out: IC50 MMP-2) it was greater than 100000 nM; at MMP-3 (read-out: IC50 MMP-3), 220 nM; on MMP-9 (read-out: IC50 MMP-9) it was greater than 30000 nM; at MMP-12 [3] (setting [4]) it was greater than 30000 nM; on MMP-14 (read-out: IC50 MMP-14), greater than 100000 nM.

On to `COc1ccc(CC#Cc2ccc3c(c2)c(=O)n(Cc2ccc(C(=O)O)cc2)c(=O)n3C)cc1` [Example 2, 4-{6-[3-(4-Methoxy-phenyl)-prop-1-ynyl]-1-methyl-2,4-dioxo-1,4-dihydro-2H-quinazolin-3-ylmethyl}-benzoic acid], for which the IC50 on MMP-1 (read-out: IC50 MMP-1) was greater than 100000 nM; at MMP-2 (read-out: IC50 MMP-2), greater than 100000 nM; at MMP-3 (read-out: IC50 MMP-3), 830 nM; on MMP-9 (read-out: IC50 MMP-9), greater than 30000 nM; at MMP-12 [3] (setting [4]), greater than 100000 nM; at MMP-13 (setting [5]) it was 0.18 nM. In addition, on MMP-14 (read-out: IC50 MMP-14), the IC50 is greater than 100000 nM.

Turning to `COc1cccc(COC(=O)c2cc3c(=O)n(Cc4ccc(-c5nn[nH]n5)cc4)c(=O)[nH]c3s2)c1` [Example 3, 2,4-Dioxo-3-[4-(2H-tetrazol-5-yl)-benzyl]-1,2,3,4-tetrahydro-thieno[2,3-d]pyrimidine-6-carboxylic acid 3-methoxy-benzyl ester], the IC50 at MMP-1 (read-out: IC50 MMP-1) was greater than 100000 nM; on MMP-2 (read-out: IC50 MMP-2), greater than 100000 nM; on MMP-3 (read-out: IC50 MMP-3), 160 nM; on MMP-9 (read-out: IC50 MMP-9), greater than 100000 nM; on MMP-12 [3] (setting [4]) it was 3400 nM; at MMP-13 (setting [5]) it was 1.2 nM. In addition, the IC50 at MMP-14 (read-out: IC50 MMP-14) was greater than 100000 nM.

In the case of `O=C(OCc1ccccc1)c1ccc2[nH]c(=O)n(Cc3ccccc3)c(=O)c2c1` [Example 4, 3-Benzyl-2,4-dioxo-1,2,3,4-tetrahydro-quinazoline-6-carboxylic acid benzyl ester], the IC50 at MMP-1 (unit inferred, read-out: Activities measured by TPL assays, MMP-1) was greater than 30000 nM; at MMP-2 (unit inferred, read-out: Activities measured by TPL assays, MMP-2), greater than 100000 nM; at MMP-3 (unit inferred, read-out: Activities measured by TPL assays, MMP-3), greater than 30000 nM; on MMP-7 (unit inferred, read-out: Activities measured by TPL assays, MMP-7), greater than 30000 nM; on MMP-9 (unit inferred, read-out: Activities measured by TPL assays, MMP-9), greater than 100000 nM; on MMP-13 (TPL assay, unit inferred, read-out: Activities measured by TPL assays, MMP-13), 29.5 nM. Moreover, the IC50 at MMP-14 (unit inferred, read-out: Activities measured by TPL assays, MMP-14) was greater than 100000 nM.

In the case of `O=C(O)c1ccc(CNC(=O)c2cc(-c3ccc(OC(F)(F)F)cc3)cs2)cc1` [Example 5, 4-({[4-(4-Trifluoromethoxyphenyl)thien-2-yl]carboxamido}methyl) benzoic acid], the IC50 on MMP-1 (read-out: IC50 MMP-1), on MMP-2 (read-out: IC50 MMP-2), at MMP-3 (read-out: IC50 MMP-3), on MMP-7 (read-out: IC50 MMP-7), against MMP-8 and on MMP-9 (read-out: IC50 MMP-9) was greater than 30000 nM each time. Further, the IC50 is greater than 400 nM on MMP-12 [3] (setting [4]); 12 nM on MMP-12 [3] (setting [6]); 0.14 nM at MMP-13 (setting [5]); 63 nM at MMP-13 (in presence of acetohydroxamic acid (+AH), read-out: IC50 MMP13 (+AH)); greater than 30000 nM on MMP-14 (read-out: IC50 MMP-14).

As for `O=C(O)C[C@@H](NC(=O)c1cc(-c2ccc(-c3ccncc3)cc2)cs1)c1ccccc1` [Example 6, (2?)-3-({[4-1(pyridin-4-yl)phényl]-thièn-2-yl]carboxamido)(phényl)propanoic acid hydrochloride], the IC50 is greater than 101000 nM on MMP-1 (read-out: IC50 MMP-1); greater than 390 nM on MMP-2 (read-out: IC50 MMP-2); greater than 1700 nM at MMP-3 (read-out: IC50 MMP-3); greater than 980 nM against MMP-8; greater than 1400 nM at MMP-9 (read-out: IC50 MMP-9); 14 nM at MMP-12 [3] (setting [4]). Moreover, the figures for the IC50 on MMP-12 [3] (setting [6]) and at MMP-13 were 4 nM and 270 nM, respectively.

Consider `CN1c2ccc(C3CN(Cc4ccccc4)C(=O)CO3)cc2CS1(=O)=O` (stereo not drawn) [Example 7, 4-Benzyl-6-(1-methyl-2,2-dioxo-2,3-dihydro-1H-2λ^6-benzo[c]isothiazol-5-yl)morpholin-3-one], for which the IC50 on MMP-12 [3] (setting [4]) was found to be 17000 nM; at MMP-12 [3] (setting [6]), 270 nM; on MMP-13 (setting [5]), 3600 nM.

In the case of `O=C(NC[C@H]1CC[C@H](C(=O)O)CC1)c1cc(-c2ccc(-c3ccncc3)cc2)ns1` [Example 8, Trans 3-[4-(4-pyridyl)phenyl]-5-isothiazole carboxamido methyl-cyclohexane carboxylic acid, Potassium Salt], the IC50 on MMP-12 [3] (setting [4]) was determined as 570 nM; at MMP-12 [3] (setting [6]), 15 nM; at MMP-13 (setting [5]), 1900 nM.
